Data on 41 molecules can be found in ChEMBL document CHEMBL1914333, “Synthesis and evaluation of compounds that induce readthrough of premature termination codons” (Bioorg Med Chem Lett, 2011).

The target in experiment [1] is T1, 80S Ribosome (Homo sapiens) (UniProt P08865+P42677+P62753+P15880+P23396+P61247+P62701+P22090+P46782+P62081+P62241+P46781+P46783+P62280+P25398+P62277+P62263+P62841+P62244+P62249+P08708+P62269+P39019+P60866+P63220+P62266+P62847+P62851+P62854+P62979+P62857+P62273+P62861+P39023+P36578+P46777+Q02878+P18124+P62424+P62917+P32969+P27635+P62906+P62913+P30050+P26373+P40429+P50914+P61313+P18621+Q07020+Q02543+P84098+P46778+P35268+P62829+P62750+P83731+P61254+P61353+P46776+P46779+P47914+P62888+P62899+P62910+P49207+P42766+P18077+Q9Y3U8+P83881+P61927+P61513+P63173+P62891+P62945+P05388+P05386). Nature of the experiment: Induction of ribosome to readthrough in human A-T lymphoblastoid cells assessed as ATM ser1981 autophosphorylation at 30 uM after 4 days by PTT-ELISA assay. The experiment is classed as subcellular. (In general: An ELISA detects its analyte on a solid surface through an enzyme-linked reagent.)

In experiment [2] the target is T1, 80S Ribosome (Homo sapiens). Nature of the experiment: Induction of ribosome to readthrough in human A-T lymphoblastoid cells assessed as irradiation-induced ATM Ser1981 nuclear foci formation at 30 uM after 4 days by PTT-ELISA. The experiment is classed as subcellular.

The source made the active and inactive calls. The rule behind the calls is not given here.

As to `O=C1NC(=S)S/C1=C\c1cc2ccccc2o1`, the Flu intensity in experiment [1] was 3.5.

On to `O=C1NC(=S)S/C1=C\c1ccc(-c2ccccc2C(F)(F)F)o1`, for which the Flu intensity result in experiment [1] is “inactive”.

Consider `O=c1ccn(Cc2ccc(-c3ccccc3)o2)c(=O)[nH]1`, for which the Activity in experiment [2] was 9.4%. Besides, the Flu intensity in experiment [1] was found to be 3.42.

On to `O=c1ccn(Cc2ccc(-c3cccc(Cl)c3)o2)c(=O)[nH]1`, for which, in experiment [2], the Activity stood at 11.3%. Besides, the Flu intensity in experiment [1] was determined as 5.07.

On to `O=C1NC(=S)S/C1=C\c1cc2ccccc2[nH]1`, for which the Flu intensity result in experiment [1] is “inactive”.

For `N=C1NC(=O)/C(=C/c2ccc(-c3ccccc3C(F)(F)F)o2)S1`, the Flu intensity result in experiment [1] was “inactive”.

As to `N=C1NC(=O)/C(=C/c2ccco2)S1`, in experiment [1], the Flu intensity result was “inactive”.

On to `COc1cccc(-c2ccc(/C=C3\SC(=N)NC3=O)o2)c1`, for which the Flu intensity in experiment [1] was 1.9.

Turning to `Nc1ccn(Cc2ccc(-c3ccccc3[N+](=O)[O-])o2)c(=O)n1`, the outcome in experiment [2] was inactive. Also, the Flu intensity result in experiment [1] was “inactive”.

With `N=C1NC(=O)/C(=C/c2ccc(-c3ccccc3)o2)S1`, in experiment [1], the Flu intensity result is “inactive”.

For the molecule `O=C1NC(=S)S/C1=C\c1ccc(-c2ccccc2[N+](=O)[O-])o1`, the Flu intensity entry in experiment [1] is “inactive”.

Turning to `N=C1NC(=O)/C(=C/c2c[nH]c3ccccc23)S1`, in experiment [1], the Flu intensity entry was “inactive”.

In the case of `O=C1NC(=S)S/C1=C\c1c[nH]c2ccccc12`, the Flu intensity entry in experiment [1] was “inactive”.

For the molecule `O=Cc1cn(Cc2ccc(-c3ccccc3[N+](=O)[O-])o2)c(=O)[nH]c1=O`, the Activity in experiment [2] was determined as 16%. Besides, in experiment [1], the Flu intensity came out at 2.24.

On to `N=C1NC(=O)/C(=C/c2ccc(-c3ccccc3[N+](=O)[O-])o2)S1`, for which, in experiment [1], the Flu intensity came to 3.27.

On to `O=c1ccn(Cc2ccc(-c3ccccc3F)o2)c(=O)[nH]1`, for which, in experiment [2], the Activity turned out to be 20%. Also, in experiment [1], the Flu intensity came to 5.43.

For the molecule `N=C1NC(=O)/C(=C/c2cn(Cc3ccc(-c4ccccc4[N+](=O)[O-])o3)c(=O)[nH]c2=O)S1`, the Activity in experiment [2] is 18%. Moreover, in experiment [1], the Flu intensity was 2.42.

On to `O=C1NC(=S)S/C1=C\c1ccc(-c2cccc(Cl)c2)o1`, for which the Flu intensity in experiment [1] amounted to 2.86.

On to `COc1ccccc1-c1ccc(/C=C2\SC(=N)NC2=O)o1`, for which the Flu intensity result in experiment [1] was “inactive”.

Consider `COc1ccccc1-c1ccc(/C=C2\SC(=S)NC2=O)o1`, for which, in experiment [1], the Flu intensity entry was “inactive”.

As for `O=C1NC(=S)S/C1=C\c1ccc(-c2ccccn2)o1`, in experiment [1], the Flu intensity entry was “inactive”.

Take `COc1cccc(-c2ccc(/C=C3\SC(=S)NC3=O)o2)c1`: in experiment [1], the Flu intensity was found to be 2.66.

As for `Cc1cn(Cc2ccc(-c3ccccc3)o2)c(=O)[nH]c1=O`, the Activity in experiment [2] is 22.8%. In addition, in experiment [1], the Flu intensity worked out at 3.8.

On to `O=C1NC(=S)S/C1=C\c1ccc(-c2ccccc2Cl)o1`, for which the Flu intensity in experiment [1] stood at 3.55.

As to `N=C1NC(=O)/C(=C/c2ccc(-c3ccccn3)o2)S1`, the Flu intensity entry in experiment [1] was “inactive”.

Regarding `O=C1NC(=S)S/C1=C\c1ccc(-c2ccccc2F)o1`, the Flu intensity in experiment [1] came out at 2.86.

`N=C1NC(=O)/C(=C/c2c[nH]c(=O)[nH]c2=O)S1`: the Activity in experiment [2] was determined as 17%. Besides, in experiment [1], the Flu intensity was 5.32.

In the case of `CN1C(=N)S/C(=C\c2ccc(-c3ccccc3[N+](=O)[O-])o2)C1=O`, the Flu intensity entry in experiment [1] is “inactive”.

`N=C1NC(=O)/C(=C/c2cc3ccccc3o2)S1`: in experiment [1], the Flu intensity result is “inactive”.

With `N=C1NC(=O)/C(=C/c2ccc(-c3cccc(Cl)c3)o2)S1`, the Flu intensity in experiment [1] is 2.27.

In the case of `Cc1cn(Cc2ccc(-c3ccccc3[N+](=O)[O-])o2)c(=O)[nH]c1=O`, in experiment [2], the outcome was inactive. For the same molecule, the Flu intensity entry in experiment [1] is “inactive”.

For `O=c1[nH]c(=O)n(Cc2ccc(-c3ccccc3[N+](=O)[O-])o2)cc1F`, in experiment [2], the Activity came to 14.5%. The Flu intensity in experiment [1] was determined as 2.08.

Turning to `O=C1NC(=S)S/C1=C\c1ccc(-c2cccc(F)c2)o1`, the Flu intensity in experiment [1] amounted to 3.44.

For `N=C1NC(=O)/C(=C/c2cc3ccccc3[nH]2)S1`, in experiment [1], the Flu intensity result was “inactive”.

With `N=C1NC(=O)/C(=C/c2ccc(-c3ccccc3F)o2)S1`, the Flu intensity entry in experiment [1] was “inactive”.

On to `O=c1ccn(Cc2ccc(-c3ccccc3[N+](=O)[O-])o2)c(=O)[nH]1`, for which, in experiment [2], the Activity was 10.7%. In addition, in experiment [1], the Flu intensity was found to be 4.94.

Turning to `Nc1nc(=O)n(Cc2ccc(-c3ccccc3[N+](=O)[O-])o2)cc1F`, the result in experiment [2] was inactive. Besides, the Flu intensity result in experiment [1] is “inactive”.

`N=C1NC(=O)/C(=C/c2ccc(-c3ccccc3)s2)S1`: the Flu intensity entry in experiment [1] was “inactive”.

For the molecule `N=C1NC(=O)/C(=C/c2ccc(-c3cccc(F)c3)o2)S1`, in experiment [1], the Flu intensity result was “inactive”.

For `N=C1NC(=O)/C(=C/c2ccc(-c3ccccc3Cl)o2)S1`, in experiment [1], the Flu intensity result is “inactive”.

Regarding `Cc1cn(Cc2ccc(-c3ccccc3F)o2)c(=O)[nH]c1=O`, in experiment [2], the Activity came out at 9.6%. The Flu intensity in experiment [1] is 6.16.
